Data: patent publication US20210386754A1, “COMPOSITIONS AND METHODS FOR TREATING ATHEROSCLEROTIC VASCULAR DISEASE” (AUGUSTA UNIVERSITY RESEARCH INSTITUTE, INC., priority 2020, published 2021)
“Also recorded” adds a separate entry of the source.

What was measured:
THP-1 macrophages = test: Foam cell formation / nLDL macropinocytosis, Nile Red FACS; type: cell-based, human; conditions: for macropinocytosis of nLDL (Nile Red fluorescence): M-CSF 100 ng/mL, PDGF 200 ng/mL
Procedure: Flow cytometry experiments were performed using the BD Accuri C6 flow cytometer using a standard protocol.
Foam cell formation: THP-1 macrophages or bone marrow-derived macrophages were treated with vehicle, known macropinocytosis stimulators (PMA 1 μM, M-CSF 100 ng/mL or PDGF 200 ng/mL)+/− macropinocytosis inhibitors (imipramine 10 μM or EIPA 25 μM; 1 hour pre-incubation) in the presence of nLDL, ox-LDL, or ac-LDL ([…]) for 24 hours. Cells were fixed in 2% PFA and stained with Nile Red (50 ng/mL) for 7 min. Fluorescence intensity was measured using the FL3 channel for Nile Red (Ex: 488 nm, Em: 670 nm).

[1] = test system: macropinocytosis in macrophages; test: Unbiased screen of FDA-approved drug library for inhibition of macrophage macropinocytosis; type: cell-based; conditions: screen of an FDA-approved drug library
[2] = cited from earlier work
[3] = test system: hypercholesterolemic mice (PCSK9-AAV-mediated LDLR knockdown); test: Atherosclerosis model: PCSK9-AAV, partial LCA ligation, Western diet; type: in vivo, mouse
Description: Mice were given a single injection of AAV-PCSK9 (1×1011 VG) and fed a Western diet (Envigo, TD.88137, Indianapolis, Ind.). One week after AAV-PCSK9 injection, mice underwent partial carotid ligation surgery as previously described (67) and Western diet was continued for another 3 weeks. In separate experiments, mice were given a single injection of AAV-PCSK9 (1×1011 VG) and fed a Western diet for 16 weeks. Mice were anesthetized (isoflurane inhalation, 3%) and exsanguinated. Blood was collected from left ventricle using a heparinized syringe fitted with a 21 G needle. Aortic arch and carotid arteries were collected, and gross macroscopic images were acquired. For molecular histology studies, carotids and aortic arch were fixed in 4% paraformaldehyde (PFA), embedded in OCT compound and stored at −80° C. until use.
ORO staining: Atherosclerosis development in carotid arteries and whole aorta were studied initially by gross imaging followed by Oil Red O (ORO) staining and plaque quantification. Briefly, the entire aorta was isolated, cleaned of peri-adventitial fat, fixed and imaged on the surface of black silicone-coated dissection dishes. Left carotid arteries were embedded in OCT and 10 μm thick cross-sections were prepared. The arteries were divided into 3 regions based on their distance from the aortic arch: proximal (0-400 μm), middle (2,000-2,400 μm) and distal (4,000-4,400 μm). Frozen sections and whole aortas were then stained with ORO solution (2%) and images were taken using light microscope equipped with a camera under 20× and 1.6× objective lens. The total area, lumen area and ORO positive area were measured for six sections/anatomical position per mouse using Image J software. The ratio of ORO positive area to arterial area is represented as plaque area. Plasma total cholesterol concentrations were determined by the Amplex™ Red Cholesterol Assay Kit (ThermoFisher, Rockford, Ill.). Plasma lipid profiles were obtained by column fractionation and measurements of fraction cholesterol content.
Hematoxylin and Eosin (H&E) or Masson's trichrome staining: Frozen sections were also used for Hematoxylin and Eosin (H&E) or Masson's trichrome staining following standard procedures to evaluate the lesion size and collagen content, respectively.
Orcein and Martius Scarlet Blue (OMSB) staining: OMSB was used for qualitative and quantitative analysis of atherosclerotic plaques as previously described. Briefly, left carotid arteries were dissected out, fixed in 4% buffered paraformaldehyde (pH=7.4) for at least 48 hr, and then routinely processed and embedded in paraffin (tissue processor TP1020; Leica, Wetzlar, Germany). Cross sections were cut every 5 m along the artery (starting from the proximal end) and mounted serially on silanized slides. Sections were stained and mounted automatically using Leica ST5010 Autostainer XL combined with Leica CV5030 Glass Coverslip. Deparaffinized sections through xylene and ethanol, and rehydrate to water. Postfix sections in Bouin's fixative at 56° C. for 1 hour, then rinse for 10 min in tap water to remove traces of picric acid. Stain with orcein for 20 min at 56° C. Differentiate in acidic alcohol for 2 min and then transfer to 96% ethanol for 30 s. Stain with martius yellow for 3 min and rinse in distilled water (2×2 min). Stain with crystal scarlet for 10 min. Differentiate with phosphotungstic acid 2 min and transfer to distilled water (for about 10 s). Stain with methyl blue 5 min. Rinse in acetic acid water 3 min, dehydrate through ethanol and carbol-xylene, clear in xylene, and mount in DPX or other resin. Staining of collagen with picrosirius red. The sections were examined and digital images of stained arteries were recorded using Olympus dotSlide system (Olympus, Tokyo, Japan). Segmentation algorithm allowed to distinguish vessel wall area, lumen area, plaque area, and area of the plaque occupied by collagen. The results were presented as areas of identified components in μm2. […]

[4] = test system: pre-hypertensive patients; conditions: amiloride monotherapy; independent of blood pressure lowering effect; cited from earlier work
[5] = test system: lipopolysaccharide (LPS)-treated ApoE-/- mice; conditions: Zhao et al. 2012; cited from earlier work
[6] = imipramine-treated vs control mice

## PDGF
THP-1 macrophages
  macropinocytosis of nLDL (Nile Red fluorescence): stimulated

## CN(C)CCCN1c2ccccc2CCc2ccccc21 [imipramine]
[1]
  IC50: 131 nM
[2]
  oral bio-availability: 95%
[3]; imipramine 9 mg/mL, pump rate 0.11 μl/hour, sc, LDLR-knockdown mice, vs vehicle
  atherosclerotic lesion formation (OMSB staining): significantly attenuates; also recorded: attenuated
[3]; imipramine sc vs vehicle
  collagen area (collagen %): inhibited
  relative internal vessel area (IVA %): inhibited
[3]; [6]
  blood pressure: no significant differences
  body weight: no significant differences
  fat mass: no significant differences
  whole body fluid content: no significant differences
THP-1 macrophages; imipramine 1 hour preincubation, 100 ng/mL M-CSF or 200 ng/mL PDGF, 50 μg/mL nLDL, 24 hours
  M-CSF- and PDGF-induced intracellular lipid accumulation following nLDL treatment (Nile Red): inhibited

## catalase
THP-1 macrophages; non-pegylated SOD 100 U/mL and/or catalase 250 U/mL, 1 hr pretreatment, 50 μg/mL nLDL, 24 hours
  M-CSF- and PDGF-induced nLDL internalization: did not inhibit

## N=C(N)NC(=O)c1nc(Cl)c(N)nc1N [amiloride]
[4]
  pulse wave velocity (PWV): improves
[5]
  lesion development: reduces

B1: M-CSF: macrophage colony-stimulating factor, physiological stimulator of macropinocytosis (protein, UniProt P09603 33-554, looked up)
Macrophage colony-stimulating …: EEVSEYCSHMIGSGHLQSLQRLIDSQMETSCQITFEFVDQEQLKDPVCYLKKAFLLVQDIMEDTMRFRDNTPNAIAIVQLQELSLRLKSCFTKDYEEHDKACVRTFYETPLQLLEKVKNVFNETKNLLDKDWNIFSKNCNNSFAECSSQDVVTKPDCNCLYPKAIPSSDPASVSPHQPLAPSMAPVAGLTWEDSEGTEGSSLLPGEQPLHTVDPGSAKQRPPRSTCQSFEPPETPVVKDSTIGGSPQPRPSVGAFNPGMEDILDSAMGTNWVPEEASGEASEIPVPQGTELSPSRPGGGSMQTEPARPSNFLSASSPLPASAKGQQPADVTGTALPRVGPVRPTGQDWNHTPQKTDHPSALLRDPPEPGSPRISSLRPQGLSNPSTLSAQPQLSRSHSSGSVLPLGELEGRRSTRDRRSPAEPEGGPASEGAARPLPRFNSVPLTDTGHERQSEGSFSPQLQESVFHLLVPSVILVLLAVGGLLFYRWRRRSHQEPQRADSPLEQPEGSPLTQDDRQVELPV
THP-1 macrophages
  macropinocytosis of nLDL (Nile Red fluorescence): stimulated
